# Test system: barnyardgrass (Echinochloa crus-galli)
# Assay: Test A preemergence, barnyardgrass
# Assay type: in vivo
# Settings: 125 g ai/ha, 0 to 100 scale
# Excerpt: (§1) Seeds of plant species selected from barnyardgrass (Echinochloa crus-galli), crabgrass (large crabgrass, Digitaria sanguinalis), kochia (Kochia scoparia), ragweed (common ragweed, Ambrosia elatior), morningglory (Ipomoea spp.), velvetleaf (Abutilon theophrasti), ryegrass, It. (Italian ryegrass, Lolium multiflorum), foxtail, giant (giant foxtail, Setaria faberii), wheat (Triticum aestivum), corn (Zea mays), and pigweed (Amaranthus retroflexus), were planted into a blend of loam soil and sand and treated preemergence with a directed soil spray using test chemicals formulated in a non-phytotoxic solvent mixture which included a surfactant. At the same time, plants selected from these crop and weed species and also blackgrass (Alopecurus myosuroides), and galium (catchweed bedstraw, Galium aparine), were planted in pots containing the same blend of loam soil and sand and treated with postemergence applications of test chemicals formulated in the same manner. Plants ranged in height from 2 to 10 cm and were in the one- to two-leaf stage for the postemergence treatment. Treated plants and untreated controls were maintained in a greenhouse for approximately 10 d, after which time all treated plants were compared to untreated controls and visually evaluated for injury. Plant response ratings, summarized in Table A, are based on a 0 to 100 scale where 0 is no effect and 100 is complete control. A dash (-) response means no test result.
row,Structure (SMILES),"Plant response rating, Barnyardgrass"
1,O=C(Nc1cccc(C(F)(F)F)c1)C1CNC(=O)C1C(=O)Nc1cccc(F)c1F (centres unmarked) [Compound 18],20

# Same assay, conditions: 500 g ai/ha, 0 to 100 scale
row,Structure (SMILES),"Plant response rating, Barnyardgrass"
1,O=C(Nc1cccc(C(F)(F)F)c1)C1CNC(=O)C1C(=O)Nc1cccc(F)c1F (centres unmarked) [Compound 18],30

# Test system: kochia (Kochia scoparia)
# Assay: Test A preemergence, kochia
# Assay type: in vivo
# Settings: 125 g ai/ha, 0 to 100 scale
# Excerpt: as §1
row,Structure (SMILES),"Plant response rating, Kochia"
1,O=C(Nc1cccc(C(F)(F)F)c1)C1CNC(=O)C1C(=O)Nc1cccc(F)c1F (centres unmarked) [Compound 18],0

# Same assay, conditions: 500 g ai/ha, 0 to 100 scale
row,Structure (SMILES),"Plant response rating, Kochia"
1,O=C(Nc1cccc(C(F)(F)F)c1)C1CNC(=O)C1C(=O)Nc1cccc(F)c1F (centres unmarked) [Compound 18],0

# Test system: ragweed (common ragweed, Ambrosia elatior)
# Assay: Test A preemergence, ragweed
# Assay type: in vivo
# Settings: 125 g ai/ha, 0 to 100 scale
# Excerpt: as §1
row,Structure (SMILES),"Plant response rating, Ragweed"
1,O=C(Nc1cccc(C(F)(F)F)c1)C1CNC(=O)C1C(=O)Nc1cccc(F)c1F (centres unmarked) [Compound 18],0

# Test system: ryegrass, It. (Italian ryegrass, Lolium multiflorum)
# Assay: Test A preemergence, ryegrass, It.
# Assay type: in vivo
# Settings: 125 g ai/ha, 0 to 100 scale
# Excerpt: as §1
row,Structure (SMILES),"Plant response rating, Ryegrass, It."
1,O=C(Nc1cccc(C(F)(F)F)c1)C1CNC(=O)C1C(=O)Nc1cccc(F)c1F (centres unmarked) [Compound 18],0

# Same assay, conditions: 500 g ai/ha, 0 to 100 scale
row,Structure (SMILES),"Plant response rating, Ryegrass, It."
1,O=C(Nc1cccc(C(F)(F)F)c1)C1CNC(=O)C1C(=O)Nc1cccc(F)c1F (centres unmarked) [Compound 18],20

# Test system: foxtail, giant (giant foxtail, Setaria faberii)
# Assay: Test A preemergence, foxtail, giant
# Assay type: in vivo
# Settings: 125 g ai/ha, 0 to 100 scale
# Excerpt: as §1
row,Structure (SMILES),"Plant response rating, Foxtail, Giant"
1,O=C(Nc1cccc(C(F)(F)F)c1)C1CNC(=O)C1C(=O)Nc1cccc(F)c1F (centres unmarked) [Compound 18],50

# Same assay, conditions: 500 g ai/ha, 0 to 100 scale
row,Structure (SMILES),"Plant response rating, Foxtail, Giant"
1,O=C(Nc1cccc(C(F)(F)F)c1)C1CNC(=O)C1C(=O)Nc1cccc(F)c1F (centres unmarked) [Compound 18],60

# Test system: pigweed (Amaranthus retroflexus)
# Assay: Test A preemergence, pigweed
# Assay type: in vivo
# Settings: 125 g ai/ha, 0 to 100 scale
# Excerpt: as §1
row,Structure (SMILES),"Plant response rating, Pigweed"
1,O=C(Nc1cccc(C(F)(F)F)c1)C1CNC(=O)C1C(=O)Nc1cccc(F)c1F (centres unmarked) [Compound 18],0

# Same assay, conditions: 500 g ai/ha, 0 to 100 scale
row,Structure (SMILES),"Plant response rating, Pigweed"
1,O=C(Nc1cccc(C(F)(F)F)c1)C1CNC(=O)C1C(=O)Nc1cccc(F)c1F (centres unmarked) [Compound 18],0

# Test system: barnyardgrass (Echinochloa crus-galli)
# Assay: Test A postemergence, barnyardgrass
# Assay type: in vivo
# Settings: 125 g ai/ha, 0 to 100 scale
# Excerpt: as §1
row,Structure (SMILES),"Plant response rating, Barnyardgrass"
1,O=C(Nc1cccc(C(F)(F)F)c1)C1CNC(=O)C1C(=O)Nc1cccc(F)c1F (centres unmarked) [Compound 18],20

# Same assay, conditions: 500 g ai/ha, 0 to 100 scale
row,Structure (SMILES),"Plant response rating, Barnyardgrass"
1,O=C(Nc1cccc(C(F)(F)F)c1)C1CNC(=O)C1C(=O)Nc1cccc(F)c1F (centres unmarked) [Compound 18],30

# Test system: kochia (Kochia scoparia)
# Assay: Test A postemergence, kochia
# Assay type: in vivo
# Settings: 125 g ai/ha, 0 to 100 scale
# Excerpt: as §1
row,Structure (SMILES),"Plant response rating, Kochia"
1,O=C(Nc1cccc(C(F)(F)F)c1)C1CNC(=O)C1C(=O)Nc1cccc(F)c1F (centres unmarked) [Compound 18],0

# Same assay, conditions: 500 g ai/ha, 0 to 100 scale
row,Structure (SMILES),"Plant response rating, Kochia"
1,O=C(Nc1cccc(C(F)(F)F)c1)C1CNC(=O)C1C(=O)Nc1cccc(F)c1F (centres unmarked) [Compound 18],0

# Test system: ragweed (common ragweed, Ambrosia elatior)
# Assay: Test A postemergence, ragweed
# Assay type: in vivo
# Settings: 125 g ai/ha, 0 to 100 scale
# Excerpt: as §1
row,Structure (SMILES),"Plant response rating, Ragweed"
1,O=C(Nc1cccc(C(F)(F)F)c1)C1CNC(=O)C1C(=O)Nc1cccc(F)c1F (centres unmarked) [Compound 18],0

# Same assay, conditions: 500 g ai/ha, 0 to 100 scale
row,Structure (SMILES),"Plant response rating, Ragweed"
1,O=C(Nc1cccc(C(F)(F)F)c1)C1CNC(=O)C1C(=O)Nc1cccc(F)c1F (centres unmarked) [Compound 18],0

# Test system: ryegrass, It. (Italian ryegrass, Lolium multiflorum)
# Assay: Test A postemergence, ryegrass, It.
# Assay type: in vivo
# Settings: 125 g ai/ha, 0 to 100 scale
# Excerpt: as §1
row,Structure (SMILES),"Plant response rating, Ryegrass, It."
1,O=C(Nc1cccc(C(F)(F)F)c1)C1CNC(=O)C1C(=O)Nc1cccc(F)c1F (centres unmarked) [Compound 18],0

# Same assay, conditions: 500 g ai/ha, 0 to 100 scale
row,Structure (SMILES),"Plant response rating, Ryegrass, It."
1,O=C(Nc1cccc(C(F)(F)F)c1)C1CNC(=O)C1C(=O)Nc1cccc(F)c1F (centres unmarked) [Compound 18],0

# Test system: foxtail, giant (giant foxtail, Setaria faberii)
# Assay: Test A postemergence, foxtail, giant
# Assay type: in vivo
# Settings: 125 g ai/ha, 0 to 100 scale
# Excerpt: as §1
row,Structure (SMILES),"Plant response rating, Foxtail, Giant"
1,O=C(Nc1cccc(C(F)(F)F)c1)C1CNC(=O)C1C(=O)Nc1cccc(F)c1F (centres unmarked) [Compound 18],20

# Same assay, conditions: 500 g ai/ha, 0 to 100 scale
row,Structure (SMILES),"Plant response rating, Foxtail, Giant"
1,O=C(Nc1cccc(C(F)(F)F)c1)C1CNC(=O)C1C(=O)Nc1cccc(F)c1F (centres unmarked) [Compound 18],50

# Test system: wheat (Triticum aestivum)
# Assay: Test A postemergence, wheat
# Assay type: in vivo
# Settings: 125 g ai/ha, 0 to 100 scale
# Excerpt: as §1
row,Structure (SMILES),"Plant response rating, Wheat"
1,O=C(Nc1cccc(C(F)(F)F)c1)C1CNC(=O)C1C(=O)Nc1cccc(F)c1F (centres unmarked) [Compound 18],0

# Same assay, conditions: 500 g ai/ha, 0 to 100 scale
row,Structure (SMILES),"Plant response rating, Wheat"
1,O=C(Nc1cccc(C(F)(F)F)c1)C1CNC(=O)C1C(=O)Nc1cccc(F)c1F (centres unmarked) [Compound 18],0

# Test system: corn (Zea mays)
# Assay: Test A postemergence, corn
# Assay type: in vivo
# Settings: 125 g ai/ha, 0 to 100 scale
# Excerpt: as §1
row,Structure (SMILES),"Plant response rating, Corn"
1,O=C(Nc1cccc(C(F)(F)F)c1)C1CNC(=O)C1C(=O)Nc1cccc(F)c1F (centres unmarked) [Compound 18],0

# Same assay, conditions: 500 g ai/ha, 0 to 100 scale
row,Structure (SMILES),"Plant response rating, Corn"
1,O=C(Nc1cccc(C(F)(F)F)c1)C1CNC(=O)C1C(=O)Nc1cccc(F)c1F (centres unmarked) [Compound 18],0

# Test system: pigweed (Amaranthus retroflexus)
# Assay: Test A postemergence, pigweed
# Assay type: in vivo
# Settings: 125 g ai/ha, 0 to 100 scale
# Excerpt: as §1
row,Structure (SMILES),"Plant response rating, Pigweed"
1,O=C(Nc1cccc(C(F)(F)F)c1)C1CNC(=O)C1C(=O)Nc1cccc(F)c1F (centres unmarked) [Compound 18],0

# Same assay, conditions: 500 g ai/ha, 0 to 100 scale
row,Structure (SMILES),"Plant response rating, Pigweed"
1,O=C(Nc1cccc(C(F)(F)F)c1)C1CNC(=O)C1C(=O)Nc1cccc(F)c1F (centres unmarked) [Compound 18],30

# Test system: blackgrass (Alopecurus myosuroides)
# Assay: Test A postemergence, blackgrass
# Assay type: in vivo
# Settings: 125 g ai/ha, 0 to 100 scale
# Excerpt: as §1
row,Structure (SMILES),"Plant response rating, Blackgrass"
1,O=C(Nc1cccc(C(F)(F)F)c1)C1CNC(=O)C1C(=O)Nc1cccc(F)c1F (centres unmarked) [Compound 18],20

# Same assay, conditions: 500 g ai/ha, 0 to 100 scale
row,Structure (SMILES),"Plant response rating, Blackgrass"
1,O=C(Nc1cccc(C(F)(F)F)c1)C1CNC(=O)C1C(=O)Nc1cccc(F)c1F (centres unmarked) [Compound 18],30

# Test system: galium (catchweed bedstraw, Galium aparine)
# Assay: Test A postemergence, galium
# Assay type: in vivo
# Settings: 125 g ai/ha, 0 to 100 scale
# Excerpt: as §1
row,Structure (SMILES),"Plant response rating, Galium"
1,O=C(Nc1cccc(C(F)(F)F)c1)C1CNC(=O)C1C(=O)Nc1cccc(F)c1F (centres unmarked) [Compound 18],0

# Same assay, conditions: 500 g ai/ha, 0 to 100 scale
row,Structure (SMILES),"Plant response rating, Galium"
1,O=C(Nc1cccc(C(F)(F)F)c1)C1CNC(=O)C1C(=O)Nc1cccc(F)c1F (centres unmarked) [Compound 18],50

# Test system: barnyardgrass (Echinochloa crus-galli)
# Assay: Test B flooded paddy test, barnyardgrass
# Assay type: in vivo
# Settings: Flood, 250 g ai/ha; scale of 0 to 100 where 0 is no effect and 100 is complete control; 13 to 15 d
# Procedure: (§2) Plant species in the flooded paddy test selected from rice (Oryza sativa), sedge, umbrella (small-flower umbrella sedge, Cyperus difformis), ducksalad (Heteranthera limosa), and barnyardgrass (Echinochloa crus-galli) were grown to the 2-leaf stage for testing. At time of treatment, test pots were flooded to 3 cm above the soil surface, treated by application of test compounds directly to the paddy water, and then maintained at that water depth for the duration of the test. Treated plants and controls were maintained in a greenhouse for 13 to 15 d, after which time all species were compared to controls and visually evaluated. Plant response ratings, summarized in Table B, are based on a scale of 0 to 100 where 0 is no effect and 100 is complete control. A dash (-) response means no test result.
row,Structure (SMILES),"Plant response rating, Barnyardgrass"
1,O=C(Nc1cccc(C(F)(F)F)c1)C1CNC(=O)C1C(=O)Nc1cccc(F)c1F (centres unmarked) [Compound 18],30

# Test system: ducksalad (Heteranthera limosa)
# Assay: Test B flooded paddy test, ducksalad
# Assay type: in vivo
# Settings: Flood, 250 g ai/ha; scale of 0 to 100 where 0 is no effect and 100 is complete control; 13 to 15 d
# Procedure: as §2
row,Structure (SMILES),"Plant response rating, Ducksalad"
1,O=C(Nc1cccc(C(F)(F)F)c1)C1CNC(=O)C1C(=O)Nc1cccc(F)c1F (centres unmarked) [Compound 18],40

# Test system: rice (Oryza sativa)
# Assay: Test B flooded paddy test, rice
# Assay type: in vivo
# Settings: Flood, 250 g ai/ha; scale of 0 to 100 where 0 is no effect and 100 is complete control; 13 to 15 d
# Procedure: as §2
row,Structure (SMILES),"Plant response rating, Rice"
1,O=C(Nc1cccc(C(F)(F)F)c1)C1CNC(=O)C1C(=O)Nc1cccc(F)c1F (centres unmarked) [Compound 18],15

# Test system: sedge, umbrella (small-flower umbrella sedge, Cyperus difformis)
# Assay: Test B flooded paddy test, sedge, umbrella
# Assay type: in vivo
# Settings: Flood, 250 g ai/ha; scale of 0 to 100 where 0 is no effect and 100 is complete control; 13 to 15 d
# Procedure: as §2
row,Structure (SMILES),"Plant response rating, Sedge, Umbrella"
1,O=C(Nc1cccc(C(F)(F)F)c1)C1CNC(=O)C1C(=O)Nc1cccc(F)c1F (centres unmarked) [Compound 18],0

# Reference: US10906873B2, “Substituted cyclic amides as herbicides” (FMC Corporation, priority 2015, dated 2021)
